Experiments:
B. pahangi TrxR = B. pahangi TrxR enzyme assay, DTNB reduction (original data); assay type: biochemical, Brugia pahangi; settings: 100 nM enzyme, 3 mM DTNB; after 10 min preincubation; read-out: IC50 B. pahangi TrxR, substrate DTNB (original data)
Method: Enzymes were prepared in E. coli as described. Assays were performed at 25 °C in 0.1 M potassium phosphate (pH 7.4), 10 mM EDTA using 100 μM NADPH and 3 mM dithiobis(2-nitrobenzoic acid) (DTNB). […] The increase in A412 during the first 3 min was recorded upon DTNB addition. The reaction was done in triplicate.

O. ochengi adult female = assay: Onchocerca ochengi adult female worm assay (MTT/formazan); assay type: cell-based; settings: 10 μM; females assessed by MTT/formazan assay
Method: Onchocerca ochengi adult worm assays: For O. ochengi worm assays, subcutaneous nodules containing adult O. ochengi worms were removed from the hides of infected cows collected at abattoirs in Douala, Cameroon. Masses were incubated in 4 mL of complete culture medium (RPMI-1640, 5% newborn calf serum, 200 units/mL penicillin, 200 μg/mL streptomycin and 2.5 μg/mL amphotericin B) in standard 12-well culture plates and maintained in a 37 °C, 5% CO2 incubator overnight during which time the adult males migrated out of the masses while the females remained in the nodules. Compound and control wells (worms in 1% DMSO) were tested in quadruplicate and experiments were repeated twice on different days. Cultures were terminated on day 7. […] Adult female worm viability was assessed on day 7 by the standard MTT/formazan assay in which each nodular mass was placed in a well of a 48-well plate containing 500 μL of 0.5 mg/mL MTT (Sigma-Aldrich) in culture medium. Viability was evaluated visually by the extent to which the female worm mass was stained with MTT. Mean percent inhibition of formazan formation was calculated relative to the negative control worm masses after 7 days in culture.

[1] = tested on: T. b. gambiense (ITMAP/1893); assay: Anti-trypanosomal activity, T. b. gambiense trypomastigotes (resazurin); assay type: cell-based, Trypanosoma brucei gambiense; settings: 72 h, read-out: T. b. gambiense IC50 (µM) ± SD
Method: (§1) Anti-trypanosomal activity: T. b. brucei Squib-427 strain (suramin-sensitive) and T. b. gambiense (ITMAP/1893) were cultured at 37 °C and 5% CO2 in HMI-9 medium supplemented with 10% FCS [90]. About 10^4 trypomastigotes/well were added to each well and parasite growth was assessed after 72 h at 37 °C by adding resazurin and reading at ex 550 nm, em 590 nm. Suramin was included as reference drug for T. b. brucei and pentamidine for T. b. gambiense.

[2] = tested on: T. b. brucei Squib-427 strain; assay: Anti-trypanosomal activity, T. b. brucei trypomastigotes (resazurin); assay type: cell-based, Trypanosoma brucei brucei; settings: 72 h
Method: as §1

[3] = tested on: Leishmania donovani LV9 axenic amastigotes; assay: L. donovani LV9 axenic amastigotes (resazurin); assay type: cell-based; settings: read-out: Leishmania donovani LV9 Axenic Amastigotes IC50 (µM) ± SD
Method: In vitro anti-leishmanial evaluation was perfomed on both axenic and intramacrophage L. donovani amastigotes as previously described. […] Briefly, compounds were distributed in 96-well plates using 2-fold dilutions in 100 µL PYG medium. A. castellanii trophozoites were added to each well at 5 × 10^4 amoeba/mL in 200 µL final volume. L. donovani axenic amastigotes were added to each well at 10^6 parasites/mL in 200 µL final volume. After 72 h incubation at 27 °C, 20 µL of 1 mM resazurin was added to each well and further incubated at 27 °C for 8 h for A. castellanii and for 24 h for L. donovani axenic amastigotes. In living cells, resazurin is reduced in resorufin. This conversion is monitored by measuring the absorbance at specific wavelengths of resorufin (570 nm) and resazurin (600 nm) using a microplate reader (Labsystems Multiskan MS, McLean, VA, USA). In this assay, the activity was expressed in IC50. Miltefosine and pentamidine were used as reference drugs. All experiments were performed in three independent experiments.

RAW 264.7 macrophages = assay: Cytotoxicity on RAW 264.7 macrophages; assay type: cell-based, murine; settings: 48 h incubation; read-out: Cytotoxicity on RAW 264.7 Macrophages CC50 (µM) ± SD
Method: Cytotoxicity was evaluated on RAW 264.7 macrophages that were maintained at 37 °C with 5% CO2 in Dulbecco’s Modified Eagle’s Medium (DMEM, Invitrogen, Toulouse, France) supplemented with 100 U/mL penicillin-streptomycin (Invitrogen) and 10% heat-inactivated fetal bovine serum, as previously described. Briefly, cells were plated in 96-well microplates at a density of 2 × 10^4 cells per well. After incubation for 24 h at 37 °C in 5% CO2, the medium was removed from each well and 100 µL of medium containing 2-fold serial dilutions of compounds was added to each well. After 48 h incubation at 37 °C in 5% CO2, 10 µL of 450 µM resazurin was added to each well and further incubated in the dark for 4 h. Cell viability was determined as described above. The cytotoxicity of the compounds was expressed as CC50.

[4] = tested on: human fetal lung fibroblast (MRC-5); assay: in vitro
Method: Toxicity in human fetal lung fibroblast (MRC-5) cell line and primary mouse macrophages (PMM) was assessed using a previously reported assay in 96-well microtiter plates. Tamoxifen and miltefosine were included as reference drugs (Table 10).
For MRC5SV2 or PMM cells, the assays were performed in 96-well microtiter plates, each well containing 10 µL of compound dilution and 190 µL of cell inoculum (3 × 10^4 cells/mL) as reported. Cell growth was compared to untreated controls (100% growth) and assay-media controls (0% growth). After three-day incubation, cell viability was assessed fluorometrically by adding resazurin [50 µL/well of a stock solution in phosphate buffer (50 µg/mL)], incubating for 4 h and measuring fluorescence (ex 550 nm, em 590 nm). The results are expressed as percentage reduction in cell growth as compared to untreated control wells. […] Tamoxifen was included as the reference drug.

CC(=O)OCC1OC([S][Au][PH]2(c3ccccc3)C(c3ccccn3)=CC=C2c2ccccn2)C(OC(C)=O)C(OC(C)=O)C1OC(C)=O [GoPI-sugar, 1-thio-β-D-glucopyranose 2,3,4,6-tetraacetato-S-Au{1-phenyl-2,5-di(2-pyridyl)phosphole}]
IC50 (B. pahangi TrxR): 5.5 nM
% Inhibition of Motility O. ochengi Adult Female Day 7 (O. ochengi adult female): 51%
IC50 [1]: 1.11 ± 0.12 µM
IC50 [2]: 1830 nM
IC50 [3]: 1.45 ± 0.07 µM
CC50 (RAW 264.7 macrophages): 4.35 ± 0.04 µM
CC50 [4]: 590 nM
